Measured values as given in patent US10053453B2, “Compounds and their use as BACE inhibitors” (AstraZeneca AB, priority 2014, dated 2018).
Like-named read-outs stand apart in the source and are kept apart here.

Assays:
Human BACE1 = molecular target: T1, Human BACE1 (Homo sapiens, UniProt P56817); assay: Diluted TR-FRET assay; assay type: biochemical; details: 50 times less enzyme, 6.5 h reaction time at r.t.; read-out: IC50 BACE1 (dil. TR-FRET)
T1 construct: the soluble part of the human β-Secretase1 (AA1-AA460) was cloned using the BACE1(1-460)-(AVT)-Fc-pGEN-IRES-neo mammalian expression vector; AVT linker (C); made in house
T1 sequence (P56817 22-460): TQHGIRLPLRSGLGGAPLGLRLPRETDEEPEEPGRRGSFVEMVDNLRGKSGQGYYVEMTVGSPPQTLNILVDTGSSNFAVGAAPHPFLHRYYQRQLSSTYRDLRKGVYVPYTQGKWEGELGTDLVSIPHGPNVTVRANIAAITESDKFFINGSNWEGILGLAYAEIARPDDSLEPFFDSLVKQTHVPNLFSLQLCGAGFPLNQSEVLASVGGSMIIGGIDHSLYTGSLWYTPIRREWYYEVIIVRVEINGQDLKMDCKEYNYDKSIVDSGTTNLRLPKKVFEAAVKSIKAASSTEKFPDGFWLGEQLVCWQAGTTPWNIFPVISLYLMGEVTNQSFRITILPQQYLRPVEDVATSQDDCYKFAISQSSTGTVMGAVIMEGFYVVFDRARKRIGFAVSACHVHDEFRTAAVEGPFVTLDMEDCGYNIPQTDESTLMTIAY
Summary of the method: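 Human BACE1 (residues 1-460) was fused to an IgG1 Fc affinity tag and stably expressed in HEK 293 cells. Using a Multidrop Combi, 7 μL enzyme was added to 0.8 μL compound in dimethylsulphoxide and incubated 10 minutes. Reactions were stopped with 5.5 μL NaOAC Stop solution (pH 9), and TR-FRET fluorescence was read on a Pherastar HTRF module.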

Human BACE2 = molecular target: T2, Human BACE2 (Homo sapiens, UniProt Q9Y5Z0); assay: TR-FRET assay; assay type: biochemical; details: substrate 100 nM, pH4.5
T2 construct: the soluble part of the human β-Secretase2 (AA1-AA473) was cloned using BACE2(1-473)-(AVT)-Fc-pDEST12.2 mammalian expression vector; AVT linker (C); made in house
T2 sequence (Q9Y5Z0 21-473): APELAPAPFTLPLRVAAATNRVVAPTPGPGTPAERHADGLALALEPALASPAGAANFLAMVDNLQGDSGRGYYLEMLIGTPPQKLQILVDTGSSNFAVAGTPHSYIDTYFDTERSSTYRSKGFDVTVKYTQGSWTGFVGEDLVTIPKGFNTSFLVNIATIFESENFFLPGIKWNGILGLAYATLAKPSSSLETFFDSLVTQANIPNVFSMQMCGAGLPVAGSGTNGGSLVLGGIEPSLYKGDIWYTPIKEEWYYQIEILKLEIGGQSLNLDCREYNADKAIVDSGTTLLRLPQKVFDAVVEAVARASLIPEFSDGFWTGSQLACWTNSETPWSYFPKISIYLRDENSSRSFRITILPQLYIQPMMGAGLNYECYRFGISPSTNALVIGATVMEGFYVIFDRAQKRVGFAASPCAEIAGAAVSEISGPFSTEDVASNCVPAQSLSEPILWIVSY

SH-SY5Y cells = assay: sAPPβ release assay
Experimental: Cells were thawed and seeded at a concentration of around 10000 cells/well in DMEM/F-12 with Glutamax, 10% FCS and 1% non-essential amino acids to a 384-well tissue culture treated plate, 30 μL cell susp/well. The cell plates were then incubated for 7-24 h at 37° C., 5% CO2.
The cell medium was removed, followed by addition of 50 μL compound diluted in DMEM/F-12 with Glutamax, 10% FCS, 1% non-essential amino acids to a final cone of 0.5% DMSO. The compounds were incubated with the cells for 16-17 h (overnight) at 37° C., 5% CO2.
Meso Scale Discovery (MSD) plates were used for the detection of sAPP release. MSD sAPPβ plates were blocked in 1% BSA in Tris wash buffer for 1 h on shake at r.t. and washed 1 time in Tris wash buffer. […] The MSD plates were incubated with shaking at r.t. for 2 h and the media discarded. 10 μL detection antibody was added (1 nM) per well followed by incubation with shaking at r.t. for 2 h and then discarded. 35 μL Read Buffer was added per well and the plates were read in a Meso Scale Discovery SECTOR6000 Imager.

[1] = Homo sapiens, SH-SY5Y, read-out: IC50 Cell (sAPPβ release, nM), SH-SY5Y cells, compounds incubated 16-17 h

Row | Molecule | IC50 (Human BACE1) | IC50 (Human BACE2; enzyme 2.7 μg/mL) | IC50 (SH-SY5Y cells; [1]) | IC50 (Human BACE2; enzyme […]) | IC50 (SH-SY5Y cells; read-out: IC50 Cell (sAPPβ release), SH-SY5Y cells, compounds incubated 16-17 h)
1 | CC#Cc1cncc(-c2ccc3c(c2)C2(COC(N)=N2)[C@]2(CC[C@H](OC)CC2)C3)c1 (stereo partly drawn) [Compound 15, (1r,4r)-4-methoxy-6′-(5-(prop-1-yn-1-yl)pyridin-3-yl)-3′H,5″H-dispiro[cyclohexane-1,2′-indene-1′,4″-oxazol]-2″-amine] | 16 nM | 23 nM | 1.1 nM |  | 
2 | [2H]C1([2H])OC(N)=N[C@]12c1cc(C#N)ccc1C[C@@]21CC[C@H](OC)[C@@H](C)C1 [Compound 120, {(1S,1′R,3S,4S)-6′-cyano-4-methoxy-3-methyl-3′H,5″H-dispiro[cyclohexane-1,2′-indene-1′,4″-oxazol]-5″,5″-d2-2″-amine}] | 191 nM | 1630 nM | 7 nM |  | 
3 | [2H]C([2H])([2H])O[C@@H]1CC[C@]2(Cc3ccc(-c4cccnc4)cc3[C@]23N=C(N)OC3([2H])[2H])C[C@H]1C [Compound 80, (1R,1′R,3R,4R)-4-(methoxy-d3)-3-methyl-6′-(pyridin-3-yl)-3′H,5″H-dispiro[cyclohexane-1,2′-indene-1′,4″-oxazol]-5″,5″-d2-2″-amine] | 45 nM | 600 nM | < 0.16 nM |  | 
4 | (1r,3R,4r,5S)-4-methoxy-3,5-dimethyl-6′-(5-(trifluoromethyl)pyridin-3-yl)-3′H,5″H-dispiro[cyclohexane-1,2′-indene-1′,4″-oxazol]-2″-amine [Compound 30] | 169 nM |  |  | 344 nM | 11.3 nM

Continued by falling IC50 (Human BACE1), values first:

Row | IC50 (Human BACE1) | IC50 (Human BACE2; enzyme 2.7 μg/mL) | IC50 (SH-SY5Y cells; [1]) | Molecule | IC50 (Human BACE2; enzyme […]) | IC50 (SH-SY5Y cells; read-out: IC50 Cell (sAPPβ release), SH-SY5Y cells, compounds incubated 16-17 h)
5 | 2250 nM | 4990 nM | 128 nM | CO[C@H]1CC[C@]2(CC1)Cc1ccc(-c3cccnn3)cc1C21COC(N)=N1 (stereo partly drawn) [Compound 59, (1r,4r)-4-methoxy-6′-(pyridazin-3-yl)-3′H,5″H-dispiro[cyclohexane-1,2′-indene-1′,4″-oxazol]-2″-amine] |  | 
6 | 244 nM | 43.6 nM | 2 nM | [2H]C1([2H])OC(N)=N[C@]12c1cc(-c3cc(F)cc(C#N)c3)ccc1C[C@@]21CC[C@H](OC)[C@@H](C)C1 [Compound 19, 3-((1S,1′R,3S,4S)-2″-amino-4-methoxy-3-methyl-3′H,5″H-dispiro[cyclohexane-1,2′-indene-1′,4″-oxazol]-6′-yl-5″,5″-d2)-5-fluorobenzonitrile] |  | 
7 | 203 nM | > 5000 nM | 3.6 nM | [2H]C([2H])([2H])O[C@H]1CC[C@@]2(Cc3ccc(-c4cnccn4)cc3[C@]23N=C(N)OC3([2H])[2H])C[C@@H]1C [Compound 72, (1S,1′R,3S,4S)-4-(methoxy-d3)-3-methyl-6′-(pyrazin-2-yl)-3′H,5″H-dispiro[cyclohexane-1,2′-indene-1′,4″-oxazol]-5″,5″-d2-2″-amine] |  | 
8 | 67 nM | 96 nM | 10 nM | [2H]C1([2H])OC(N)=NC12c1cc(-c3cc(F)cc(F)c3)ccc1C[C@@]21CC[C@H](OC)[C@@H](C)C1 (stereo partly drawn) [Compound 110, {(1S,3S,4S)-4-methoxy-3-methyl-6′-(3,5-difluorophenyl)-3′H,5″H-dispiro[cyclohexane-1,2′-indene-1′,4″-oxazol]-5″,5″-d2-2″-amine}] |  | 
9 | 12.8 nM | 17.4 nM | 3.7 nM | [2H]C1([2H])OC(N)=N[C@]12c1cc(-c3cccc(Cl)c3)ccc1C[C@]21CC[C@@H](OC)[C@H](C)C1 [Compound 37, (1R,1′R,3R,4R)-6′-(3-chlorophenyl)-4-methoxy-3-methyl-3′H,5″H-dispiro[cyclohexane-1,2′-indene-1′,4″-oxazol]-5″,5″-d2-2″-amine] |  | 
